{
  "source": "paper PMC3985299",
  "about": "“Single Ascending Dose Safety and Pharmacokinetics of CDRI-97/78: First-in-Human Study of a Novel Antimalarial Drug” (Malaria Research and Treatment, 2014)",
  "key": {"[1]": {"assay": "Single oral dose (200 mg) pharmacokinetic study, plasma LC-MS/MS, noncompartmental analysis", "assay_type": "in vivo, human", "conditions": "oral 200 mg", "procedure": "For pharmacokinetic (PK) study, eligible participants were admitted and housed in the clinical pharmacology unit an evening prior to the PK study. A standard dinner was served and a fasting condition for at least 10 hrs prior to dosing and 4 hrs after dosing was ensured. A peripheral forearm vein was cannulated for sampling for the PK analysis. 200 mg of the study drug was administered with 300 mL of water. The time of actual dose administration to the nearest minute was recorded. 2.5 mL of blood was collected from the indwelling cannula at 0 (before dose), 0.25, 0.5, 0.75, 1, 1.5, 2, 4, 6, 8, 12, 18, 24, 48, 72, 96, 120, and 144 hrs (after dose). 10 mL of additional blood was collected at 0 (before dose) and 24 hr (after dose) for laboratory parameters for safety assessment and PK control sample. A time window of ±2 minutes was permitted for collecting the post dose samples from the scheduled time for PK analysis. Plasma was separated from blood sample intended for PK analysis, within 1 hour of blood sampling, by centrifugation at 2000 rpm for 10 min at 4°C. Samples were stored at −80°C pending transportation. Heparinised blood samples were transported to the laboratory within 7 days of collection. Quantitative analyses of clinical phase ascending dose and single dose PKs samples were done at GLP lab of Pharmacokinetics and Metabolism Division, CDRI, Lucknow, India. α-Arteether was used as an internal standard and all the analyses were performed as per the published method by Singh et al. 2009 [19]. Acceptance criteria for analytical runs were fixed as per internationally approved guidelines. Data acquisition and quantitation were performed using analyst software version 1.4 (Applied Biosystems, MDS SCIEX Toronto, Canada). PK parameters were estimated by using WinNonlin software (Version 1.5, Pharsight Corporation, Mountain View, CA). Oral data were best fitted in noncompartmental model. The individual plasma concentration-time profiles were subjected to noncompartmental analysis to determine various PK parameters. The PK parameters included the terminal elimination half-life (T 1/2), maximum plasma concentration (C max), time to reach maximum plasma concentration (T max), area under the curve (AUC0–∞), and mean residence time (MRT)."}, "healthy human volunteers": {"system": "healthy human volunteers", "assay": "Single ascending dose study: clinical parameters (blood pressure, pulse rate, respiratory rate, corrected QT)", "assay_type": "in vivo", "set-up": "SBP / DBP: unit not given here", "conditions": "for DBP / SBP: 2 hours after drug administration; for Diastolic blood pressure: 600 and 700 mg group", "description": "The volunteers after giving informed consent were screened. The screening process was done latest within 1 month of admission for dosing. The volunteers who fulfilled the inclusion/exclusion criteria were admitted in the CPU the night before drug administration. Standardized dinner was served at 9 pm the night prior to dosing. On day 0, baseline blood sample for biochemical and haematological examination and stool and urine samples for routine and microscopy were taken. They received the study drug, according to the randomization sequence, under supervision. The empty packaging was returned to the container. The volunteers received drug as per randomization. Breakfast was given half an hour after drug administration. Subsequently, standardized lunch and dinner were served to the volunteers.\nThe subjects were attached to a cardiac monitor and vital HR, BP, ECG, oxygen saturation, and RR were recorded. Corrected QT interval using Fridericia's formula was calculated. Adverse events were assessed at specific time points (0.5, 1, 2, 4, 6, 8, 12, and 24 hrs after medication). Unscheduled monitoring was undertaken whenever it felt necessary. The volunteers were discharged after 24 hrs and they had to return at 48 hrs and on the 7th day for follow-up. At the end of the 7th day, they were said to have completed the study. Routine haematological and biochemical investigations were performed at 0 hr, 24 hrs after drug administration, and on day 7. The study was monitored by a Data Safety Monitoring Board."}},
  "note": "Entries after “also recorded” stand apart in the source; their conditions may differ.",
  "data": [
    {"smiles": "C=C(c1ccc(OC(C)(C)COC(=O)CCC(=O)O)cc1)C1COC2(OO1)C1CC3CC(C1)CC2C3", "note": "(centres unmarked) [CDRI 97/78, Mono[2methyl2[3(1spiro[tricycle[3.3.1.13,7]decane2,3′-[1,2,4]trioxan] 6′-ylethenyl)phenoxy]propyl] ester]", "values": [
      {"measurement": "Absorption", "setting": "[1]", "result": "rapidly absorbed"},
      {"measurement": "Plasma concentration of parent molecule", "setting": "[1]; most of the volunteers", "result": "below the limit of quantitation"},
      {"measurement": "DBP", "setting": "healthy human volunteers; 80 mg", "result": "73 ± 5.21"},
      {"measurement": "SBP", "setting": "healthy human volunteers; 80 mg", "result": "112.17 ± 6.24"},
      {"measurement": "DBP", "setting": "healthy human volunteers; 160 mg", "result": "77.17 ± 8.06"},
      {"measurement": "SBP", "setting": "healthy human volunteers; 160 mg", "result": "119.5 ± 5.17"},
      {"measurement": "DBP", "setting": "healthy human volunteers; 320 mg", "result": "82.33 ± 4.68"},
      {"measurement": "SBP", "setting": "healthy human volunteers; 320 mg", "result": "127.5 ± 6.38"},
      {"measurement": "DBP", "setting": "healthy human volunteers; 400 mg", "result": "71.33 ± 8.19"},
      {"measurement": "SBP", "setting": "healthy human volunteers; 400 mg", "result": "111.83 ± 7.91"},
      {"measurement": "DBP", "setting": "healthy human volunteers; 500 mg", "result": "71.83 ± 7.81"},
      {"measurement": "SBP", "setting": "healthy human volunteers; 500 mg", "result": "114.5 ± 8.34"},
      {"measurement": "DBP", "setting": "healthy human volunteers; 600 mg", "result": "66.5 ± 6.53"},
      {"measurement": "SBP", "setting": "healthy human volunteers; 600 mg", "result": "112.83 ± 6.18"},
      {"measurement": "DBP", "setting": "healthy human volunteers; 700 mg", "result": "69 ± 8.48"},
      {"measurement": "SBP", "setting": "healthy human volunteers; 700 mg", "result": "115.5 ± 2.12"},
      {"measurement": "Corrected QT interval (Fridericia), change within treatment groups", "setting": "healthy human volunteers; 80-700 mg groups", "result": "no statistically or clinically significant difference; also recorded: No clinically meaningful alteration"},
      {"measurement": "Diastolic blood pressure", "setting": "healthy human volunteers; 0 hours", "result": "76.87 ± 8.74", "unit": "mmHg"},
      {"measurement": "Diastolic blood pressure", "setting": "healthy human volunteers; 0.5 hours", "result": "78.37 ± 8.86", "unit": "mmHg"},
      {"measurement": "Diastolic blood pressure", "setting": "healthy human volunteers; 1 hours", "result": "79.25 ± 13.46", "unit": "mmHg"},
      {"measurement": "Diastolic blood pressure", "setting": "healthy human volunteers; 2 hours", "result": "67.12 ± 6.49", "unit": "mmHg"},
      {"measurement": "Diastolic blood pressure", "setting": "healthy human volunteers; 4 hours", "result": "73.12 ± 12.32", "unit": "mmHg"},
      {"measurement": "Diastolic blood pressure", "setting": "healthy human volunteers; 6 hours", "result": "75.87 ± 8.11", "unit": "mmHg"},
      {"measurement": "Diastolic blood pressure", "setting": "healthy human volunteers; 8 hours", "result": "74 ± 11", "unit": "mmHg"},
      {"measurement": "Diastolic blood pressure", "setting": "healthy human volunteers; 12 hours", "result": "75 ± 10.03", "unit": "mmHg"},
      {"measurement": "Pulse rate, respiratory rate and systolic blood pressure, change compared to baseline", "setting": "healthy human volunteers; any time point, all treatment groups", "result": "None of the treatment groups demonstrated a significant alteration"}
    ]}
  ]
}
